# In patent publication US20030113263A1, “Methods and reagents for using mammalian melanocortin receptor antagonists to treat cachexia” (Oregon Health and Sciences University, a non-profit …, priority 2001, published 2003):
# Columns and labels:
# [1] = tested on: LPS-induced anorexia and fever in rats; conditions: central administration; cited from earlier work
# [2] = target: T1, human MC-4 melanocortin receptor (Homo sapiens, UniProt P32245); assay: intracellular cAMP accumulation (adenylate cyclase coupling) in transfected human 293 cells; type: cell-based; set-up: expressed in transfected cells; conditions: 293 cells expressing human MC-4 receptor, 45 min at 37° C.
# Target sequence in this assay (P32245 whole entry): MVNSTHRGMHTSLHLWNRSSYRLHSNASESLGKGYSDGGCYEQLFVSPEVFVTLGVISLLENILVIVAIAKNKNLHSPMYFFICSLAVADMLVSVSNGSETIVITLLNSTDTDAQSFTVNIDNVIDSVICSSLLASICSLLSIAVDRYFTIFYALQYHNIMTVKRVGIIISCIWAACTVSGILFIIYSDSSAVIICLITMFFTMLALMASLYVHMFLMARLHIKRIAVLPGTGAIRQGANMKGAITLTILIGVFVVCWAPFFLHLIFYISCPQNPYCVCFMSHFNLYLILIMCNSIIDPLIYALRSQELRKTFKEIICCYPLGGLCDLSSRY
# Experimental: Melanocortin receptor coupling to G-proteins in cells expressing the MC-4 melanocortin receptor was used analyze expression of the receptor in cell colonies transfected with the expression vectors described herein as follows. Cells (˜1×10^6) were plated in 6-well dishes, washed once with DMEM containing 1% bovine serum albumin (BSA) and 0.5mM IBMX (a phosphodiesterase inhibitor), then incubated for 45 minutes at 37° C. with varying concentrations of the melanotropic peptides. Following hormone treatment, the cells were washed twice with phosphate buffered saline and intracellular cAMP extracted by lysing the cells with 1 ml of 60% ethanol.
# [3] = target: T1, human MC-4 melanocortin receptor; assay: cell-based or functional assay
# Target sequence in this assay (P32245 other isoform, or with tags, fused parts or gaps): as the sequence (P32245 whole entry) above, with E42A, V65E, V103I, S109R, I169S, M215L, C318S, C319S counted along it
# [4] = target: T1, human MC-4 melanocortin receptor; assay: antagonism of agonist-induced cAMP elevation, Schild analysis; type: cell-based; set-up: expressed in transfected cells; conditions: agouti peptide approx. 60% pure; results not shown
# Target sequence in this assay (P32245 whole entry): as the sequence (P32245 whole entry) above
# Sequence of ACTH4-10 (P01189 whole entry): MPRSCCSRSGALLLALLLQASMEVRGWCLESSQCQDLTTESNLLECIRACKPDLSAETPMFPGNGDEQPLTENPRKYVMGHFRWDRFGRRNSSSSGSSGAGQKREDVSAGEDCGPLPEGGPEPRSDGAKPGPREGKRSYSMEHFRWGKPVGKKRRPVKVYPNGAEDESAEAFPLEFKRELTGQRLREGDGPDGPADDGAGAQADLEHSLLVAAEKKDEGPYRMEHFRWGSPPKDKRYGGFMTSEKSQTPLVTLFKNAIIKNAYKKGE
molecule,measurement,setting,value
"Ac-Nle^4-cyclo(Asp^5, D-Nal(2)^7, Lys^10) αMSH-(4-10)-amide [SHU9119]",effect on LPS-induced fever,[1],increased
same,effect on LPS-induced suppression of food intake,[1],reversal of LPS-induced anorexia
CSCC[C@H](N)C(=O)N[C@@H](CCC(=O)O)C(=O)N[C@@H](Cc1c[nH]cn1)C(=O)N[C@@H](Cc1ccccc1)C(=O)N[C@@H](CCCNC(=N)N)C(=O)N[C@@H](Cc1c[nH]c2ccccc12)C(=O)NCC(=O)O [ACTH4-10],EC50,[2],> 100 nM
γ2-MSH (from UniProt P01189 77-88) (peptide),"Ec50 (adenylate cyclase activity, intracellular cAMP accumulation in transfected 293 cells)",[3],> 100 nM
ACTH4-10 (from UniProt P01189) (peptide),"Ec50 (adenylate cyclase activity, intracellular cAMP accumulation in transfected 293 cells)",[3],> 100 nM
α-melanocyte stimulating hormone [α-MSH],effect on LPS-induced fever,[1],reduced
same,effect on LPS-induced suppression of food intake,[1],significant potentiation of the suppressive effects of LPS on food intake
ACTH1-39 (from UniProt P01189 138-176) (peptide),"Ec50 (adenylate cyclase activity, intracellular cAMP accumulation in transfected 293 cells)",[3],0.68 nM
"agouti: murine agouti peptide produced using a baculovirus system, approximately 60% pure (protein) HLALEETLGDDRSLRSNSSMNSLDFSSVSIVALNKKSKKISRKEAEKRKRSSKKKASMKKVARPPPPSPCVATRDSCKPPAPACCDPCASCQCRFFGSACTCRVLNPNC",competition of α-MSH activation of human MC-4 melanocortin receptors,[4],Specific competition
